Laboratory results from ChEMBL document CHEMBL5724914, “Linking interpersonal differences in gut microbiota composition and drug biotransformation activity” (2024).

Key:
[1] = The drug is tested on Z-023 corresponding to metagenome with ENA study accession number: PRJEB37062 and ENA sample accession number: ERS12561822 for biotransformation under anaerobic condition. The drug concentrations were measured over 9 timepoints collected between 0 and 24 hours of incubation by liquid-chromatography-coupled mass spectrometry (LC–MS); conditions: 2 µM
[2] = The drug is tested on WLS-220 corresponding to human gut metagenome with ENA study accession number: PRJEB37062 and ENA sample accession number: ERS12561769 for biotransformation under anaerobic condition. The drug concentrations were measured over 9 timepoints collected between 0 and 24 hours of incubation by liquid-chromatography-coupled mass spectrometry (LC–MS); conditions: 2 µM
[3] = The drug is tested on WLS-082 corresponding to human gut metagenome with ENA study accession number: PRJEB37062 and ENA sample accession number: ERS12561751 for biotransformation under anaerobic condition. The drug concentrations were measured over 9 timepoints collected between 0 and 24 hours of incubation by liquid-chromatography-coupled mass spectrometry (LC–MS); conditions: 2 µM
[4] = human gut metagenome, 24 h, 2 µM
[5] = The drug is tested on Z-009 corresponding to pig gut metagenome with ENA study accession number: PRJEB37062 and ENA sample accession number: ERS12561809 for biotransformation under anaerobic condition. The drug concentrations were measured over 9 timepoints collected between 0 and 24 hours of incubation by liquid-chromatography-coupled mass spectrometry (LC–MS); conditions: 2 µM
[6] = human gut metagenome, 24 h, 2 µM; remark: listed apart in the source
[7] = The drug is tested on WLS-006 corresponding to human gut metagenome with ENA study accession number: PRJEB37062 and ENA sample accession number: ERS12561741 for biotransformation under anaerobic condition. The drug concentrations were measured over 9 timepoints collected between 0 and 24 hours of incubation by liquid-chromatography-coupled mass spectrometry (LC–MS); conditions: 2 µM
[8] = The drug is tested on WLS-170 corresponding to human gut metagenome with ENA study accession number: PRJEB37062 and ENA sample accession number: ERS12561762 for biotransformation under anaerobic condition. The drug concentrations were measured over 9 timepoints collected between 0 and 24 hours of incubation by liquid-chromatography-coupled mass spectrometry (LC–MS); conditions: 2 µM
[9] = human gut metagenome, 24 h, 2 µM; remark: listed apart in the source
[10] = human gut metagenome, 24 h, 2 µM; remark: listed apart in the source
[11] = human gut metagenome, 24 h, 2 µM; remark: listed apart in the source
[12] = human gut metagenome, 24 h, 2 µM; remark: listed apart in the source
[13] = The drug is tested on WLS-077 corresponding to human gut metagenome with ENA study accession number: PRJEB37062 and ENA sample accession number: ERS12561750 for biotransformation under anaerobic condition. The drug concentrations were measured over 9 timepoints collected between 0 and 24 hours of incubation by liquid-chromatography-coupled mass spectrometry (LC–MS); conditions: 2 µM
[14] = human gut metagenome, 24 h, 2 µM; remark: listed apart in the source
[15] = The drug is tested on Z-008 corresponding to metagenome with ENA study accession number: PRJEB37062 and ENA sample accession number: ERS12561808 for biotransformation under anaerobic condition. The drug concentrations were measured over 9 timepoints collected between 0 and 24 hours of incubation by liquid-chromatography-coupled mass spectrometry (LC–MS); conditions: 2 µM
[16] = The drug is tested on Z-016 corresponding to mouse gut metagenome with ENA study accession number: PRJEB37062 and ENA sample accession number: ERS12561815 for biotransformation under anaerobic condition. The drug concentrations were measured over 9 timepoints collected between 0 and 24 hours of incubation by liquid-chromatography-coupled mass spectrometry (LC–MS); conditions: 2 µM
[17] = The drug is tested on Z-021 corresponding to metagenome with ENA study accession number: PRJEB37062 and ENA sample accession number: ERS12561820 for biotransformation under anaerobic condition. The drug concentrations were measured over 9 timepoints collected between 0 and 24 hours of incubation by liquid-chromatography-coupled mass spectrometry (LC–MS); conditions: 2 µM
[18] = human gut metagenome, 24 h, 2 µM; remark: listed apart in the source
[19] = The drug is tested on WLS-370 corresponding to human gut metagenome with ENA study accession number: PRJEB37062 and ENA sample accession number: ERS12561793 for biotransformation under anaerobic condition. The drug concentrations were measured over 9 timepoints collected between 0 and 24 hours of incubation by liquid-chromatography-coupled mass spectrometry (LC–MS); conditions: 2 µM
[20] = The drug is tested on WLS-086 corresponding to human gut metagenome with ENA study accession number: PRJEB37062 and ENA sample accession number: ERS12561752 for biotransformation under anaerobic condition. The drug concentrations were measured over 9 timepoints collected between 0 and 24 hours of incubation by liquid-chromatography-coupled mass spectrometry (LC–MS); conditions: 2 µM

Measured: Bacterial Biotransformation
Further: call rule not given here.

Nc1nc2ccc(OC(F)(F)F)cc2s1 [RILUZOLE]
Compound NOT metabolized: [10] | [12] | [16]
Compound metabolized: all other assays above

CC(C)c1nc(CN(C)C(=O)N[C@H](C(=O)N[C@@H](Cc2ccccc2)C[C@H](O)[C@H](Cc2ccccc2)NC(=O)OCc2cncs2)C(C)C)cs1 [RITONAVIR]
Compound NOT metabolized: [10] | [11] | [12] | [17]
Compound metabolized: all other assays above

CC(C)NCC(O)c1ccc(NS(C)(=O)=O)cc1 (stereo not given) [SOTALOL]
Compound metabolized: [8]
Compound NOT metabolized: all other assays above

CCN1CCCC1CNC(=O)c1cc(S(N)(=O)=O)ccc1OC (stereo not given) [SULPIRIDE]
Compound NOT metabolized: [1] | [2] | [3] | [4] | [10] | [11] | [15] | [16] | [17] | [19]
Compound metabolized: all other assays above

CNS(=O)(=O)Cc1ccc2[nH]cc(CCN(C)C)c2c1.O=C(O)CCC(=O)O [SUMATRIPTAN SUCCINATE]
Compound metabolized: [2] | [9] | [12] | [14] | [18] | [20]
Compound NOT metabolized: all other assays above
